Data: patent publication US20250154138A1, “Small Molecule IL-17A Modulators” (BeiGene, Ltd., priority 2022, published 2025)
pIC50: −log10 of the molar value.

Experiments:
[1] = system: IL-17-induced GROα secretion from HT-29 cells; experiment: GROα release assay in human colorectal adenocarcinoma epithelial cell (HT-29, ELISA); type: cell-based; conditions: Homo sapiens, HT-29, 48 h, 10 ng/mL IL-17A, highest concentration 10 μM, read-out: Cellular assay HT29 cell/CXCL1 IC50
Experimental: The purpose of the assay is to test the ability of a compound to neutralize IL17A proteins. IL17 can stimulate human epithelial cells to secrete GROα. The ability of one compound of the invention to neutralize IL-17-induced GROα secretion from the human colorectal adenocarcinoma epithelia cell line HT-29 is tested in this assay.
HT-29 cells (human colorectal adenocarcinoma epithelia cell, ATCC) were stimulated with IL-17A (Novoprotein, #C774) in final concentration of 10 ng/mL. The resultant GROα response was measured using an ELISA kit from Invitrogen (#88-52122). HT-29 cells were cultured in complete medium (McCoy's 5A medium+10% FBS) and maintained in a tissue culture flask using standard techniques. On day 1, detached the cell by using TrypLE (Gibco, #12605036) and used the complete medium to neutralize. The cells were centrifuged at 11,00 rmp for 4 minutes. Re-suspended the cell pellet in complete medium and seeded 50,000 HT-29 cells into the 96-well assay plate (Corning, 3599) at 135 μL complete medium per well. The cells were incubated for overnight, at 37° C./5% CO2 to adherent the plate. On day 2, prepared a 4-fold serial dilution of the tested compound in DMSO. The highest concentration of the compound was 10 μM. Transferred 2 μL of the serial diluted compound from the serial dilution plate into the reagent plate which was contained 198 μL complete medium with 100 ng/mL IL-17A per well. The compounds were incubated with the IL-17A for 15 minutes. 15 μL mixtures from reagent plate were transferred into the cell assay plate. Incubated the plate at 37° C./5% CO2 for 48 hours. After the incubation, on day 4, GROα level were measured with GROα ELISA as the manufacturer's instructions. 50 μL supernatant was collected form the assay plate to ELISA plate. ELISA plate was read at 450 nm on a microplate reader and compared to a standard calibration curve.
Data were processed using GraphPad Prism. GROα concentration was calculated from the standard curve. IC50 was determined using the equation log concentration (inhibitor) against response and fitted to four parameters.

[2] = biological target: human IL-17A / human IL-17RA (Homo sapiens (Human), UniProt Q16552); experiment: Human IL-17A biochemical assay (HTRF, blocking of IL-17A binding to IL-17RA); conditions: 0.4 nM IL-17A, 0.3 nM IL-17RA, max compound concentration 10 uM
In short: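 0.4 nM hIL-17A + cpd (10 uM top, 2.7x, 10 pt), 3 h RT, HEPES pH 7.5 buffer w/ BSA, DTT, Tween 20; + 0.3 nM hIL-17RA 1 h RT; Tb/XL665 Abs 1 h; HTRF 620/665 ratio; 4PL IC50.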

Chain of human IL-17A / human IL-17RA (Q16552 24-155): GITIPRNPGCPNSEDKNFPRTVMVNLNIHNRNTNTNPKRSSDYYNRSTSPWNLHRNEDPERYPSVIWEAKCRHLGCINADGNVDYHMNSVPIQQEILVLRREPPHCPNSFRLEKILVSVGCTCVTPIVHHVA

Row | Compound | pIC50 [1] | pIC50 [2]
1 | CC1CN(C2(C(=O)O)Cc3ccc(NC(=O)[C@@H](NC(=O)c4ccnn4C)C4CCCCC4)cc3C2)C(=O)N1 (stereo partly drawn) [Example 23, 5-((S)-2-cyclohexyl-2-(1-methyl-1H-pyrazole-5-carboxamido)acetamido)-2-(4-methyl-2-oxoimidazolidin-1-yl)-2,3-dihydro-1H-indene-2-carboxylic acid] | 5.44 | 6.19
2 | CCCC1CN(C2(C(=O)NC)Cc3ccc(NC(=O)[C@@H](NC(=O)c4ccnn4C)C4CCCCC4)cc3C2)C(=O)N1 (stereo partly drawn) [Example 26, N-((1S)-1-cyclohexyl-2-((2-(methylcarbamoyl)-2-(2-oxo-4-propylimidazolidin-1-yl)-2,3-dihydro-1H-inden-5-yl)amino)-2-oxoethyl)-1-methyl-1H-pyrazole-5-carboxamide] | 5.97 | 6.44
3 | CNC(=O)C1(N2CC(C3CCC3)NC2=O)Cc2ccc(NC(=O)[C@@H](NC(=O)c3ccnn3C)C3CCCCC3)cc2C1 (stereo partly drawn) [Example 27, N-((1S)-2-((2-(4-cyclobutyl-2-oxoimidazolidin-1-yl)-2-(methylcarbamoyl)-2,3-dihydro-1H-inden-5-yl)amino)-1-cyclohexyl-2-oxoethyl)-1-methyl-1H-pyrazole-5-carboxamide] | 6.01 | 6.80
4 | CNC(=O)C1(N2CC(C(C)C)NC2=O)Cc2cc3nc([C@@H](NC(=O)c4ccnn4C)C4CCCCC4)[nH]c3cc2C1 (stereo partly drawn) [Example 28, 2-((S)-cyclohexyl(1-methyl-1H-pyrazole-5-carboxamido)methyl)-6-(4-isopropyl-2-oxoimidazolidin-1-yl)-N-methyl-1,5,6,7-tetrahydroindeno[5,6-d]imidazole-6-carboxamide] | 7.12 | 6.40
5 | CNC(=O)C1(N2CC(C(C)C)NC2=O)Cc2cc3nc([C@@H](NC(=O)c4nonc4C)C4CCCCC4)[nH]c3cc2C1 (stereo partly drawn) [Example 29, N-((1S)-cyclohexyl(6-(4-isopropyl-2-oxoimidazolidin-1-yl)-6-(methylcarbamoyl)-1,5,6,7-tetrahydroindeno[5,6-d]imidazol-2-yl)methyl)-4-methyl-1,2,5-oxadiazole-3-carboxamide] | 6.83 | 6.80
6 | CNC(=O)C1(N2CC(C(C)C)NC2=O)Cc2ccc(NC(=O)[C@@H](NC(=O)c3nonc3C)C3CCCCC3)cc2C1 (stereo partly drawn) [Example 30, N-((1S)-1-cyclohexyl-2-((2-(4-isopropyl-2-oxoimidazolidin-1-yl)-2-(methylcarbamoyl)-2,3-dihydro-1H-inden-5-yl)amino)-2-oxoethyl)-4-methyl-1,2,5-oxadiazole-3-carboxamide] | 6.24 | 7.24
7 | CC[C@@H]1CN(C2(C(=O)NC)Cc3cc4nc([C@@H](NC(=O)c5ccnn5C)C5CCCCC5)[nH]c4cc3C2)C(=O)N1 [Example 31, 2-((S)-cyclohexyl(1-methyl-1H-pyrazole-5-carboxamido)methyl)-6-((R)-4-ethyl-2-oxoimidazolidin-1-yl)-N-methyl-1,5,6,7-tetrahydroindeno[5,6-d]imidazole-6-carboxamide] | 6.94 | 6.69
8 | CC[C@@H]1CN(C2(C(=O)NC)Cc3cc4nc([C@@H](NC(=O)c5nonc5C)C5CCCCC5)[nH]c4cc3C2)C(=O)N1 [Example 32, N-((1S)-cyclohexyl(6-((R)-4-ethyl-2-oxoimidazolidin-1-yl)-6-(methylcarbamoyl)-1,5,6,7-tetrahydroindeno[5,6-d]imidazol-2-yl)methyl)-4-methyl-1,2,5-oxadiazole-3-carboxamide] | 6.87 | 7.21
9 | CNC(=O)C1(N2CC(C(C)COC)NC2=O)Cc2ccc(NC(=O)[C@@H](NC(=O)c3ccnn3C)C3CCCCC3)cc2C1 (stereo partly drawn) [Example 35, N-((1S)-1-cyclohexyl-2-((2-(4-(1-methoxypropan-2-yl)-2-oxoimidazolidin-1-yl)-2-(methylcarbamoyl)-2,3-dihydro-1H-inden-5-yl)amino)-2-oxoethyl)-1-methyl-1H-pyrazole-5-carboxamide] | 5.69 | 6.53
10 | CNC(=O)C1(N2C[C@@H](Cc3ccccc3)NC2=O)Cc2ccc(NC(=O)[C@@H](NC(=O)c3ccnn3C)C3CCCCC3)cc2C1 (stereo partly drawn) [Example 37, N-((1S)-2-((2-((R)-4-benzyl-2-oxoimidazolidin-1-yl)-2-(methylcarbamoyl)-2,3-dihydro-1H-inden-5-yl)amino)-1-cyclohexyl-2-oxoethyl)-1-methyl-1H-pyrazole-5-carboxamide] | 5.83 | 6.95
11 | CNC(=O)C1(N2CC(C(C)C)NC2=O)Cc2ccc(NC(=O)[C@@H](NC(=O)c3ccnn3C)C3CCCCC3)cc2C1 (stereo partly drawn) [Example 38, N-((1S)-1-cyclohexyl-2-((2-(4-isopropyl-2-oxoimidazolidin-1-yl)-2-(methylcarbamoyl)-2,3-dihydro-1H-inden-5-yl)amino)-2-oxoethyl)-1-methyl-1H-pyrazole-5-carboxamide] | 6.81 | 7.34
12 | CNC(=O)C1(N2C[C@@H](C(C)C)NC2=O)Cc2ccc(NC(=O)[C@@H](NC(=O)c3ccnn3C)C3CCCCC3)cc2C1 (stereo partly drawn) [Example 39, N-((1S)-1-cyclohexyl-2-((2-((R)-4-isopropyl-2-oxoimidazolidin-1-yl)-2-(methylcarbamoyl)-2,3-dihydro-1H-inden-5-yl)amino)-2-oxoethyl)-1-methyl-1H-pyrazole-5-carboxamide] | 7.25 | 7.65
13 | CNC(=O)C1(N2C[C@@H](C(C)C)NC2=O)Cc2ccc(NC(=O)[C@@H](NC(=O)c3nonc3C)C3CCCCC3)cc2C1 (stereo partly drawn) [Example 40, N-((1S)-1-cyclohexyl-2-((2-((R)-4-isopropyl-2-oxoimidazolidin-1-yl)-2-(methylcarbamoyl)-2,3-dihydro-1H-inden-5-yl)amino)-2-oxoethyl)-4-methyl-1,2,5-oxadiazole-3-carboxamide] | 6.84 | 7.60
14 | CNC(=O)C1(N2C[C@@H](C3CC3)NC2=O)Cc2ccc(NC(=O)[C@@H](NC(=O)c3ccnn3C)C3CCCCC3)cc2C1 (stereo partly drawn) [Example 41, N-((1S)-1-cyclohexyl-2-((2-((R)-4-cyclopropyl-2-oxoimidazolidin-1-yl)-2-(methylcarbamoyl)-2,3-dihydro-1H-inden-5-yl)amino)-2-oxoethyl)-1-methyl-1H-pyrazole-5-carboxamide] | 6.31 | 7.00
15 | CNC(=O)C1(N2C[C@@H](Cc3ccccn3)NC2=O)Cc2ccc(NC(=O)[C@@H](NC(=O)c3ccnn3C)C3CCCCC3)cc2C1 (stereo partly drawn) [Example 43, N-((1S)-1-cyclohexyl-2-((2-(methylcarbamoyl)-2-((R)-2-oxo-4-(pyridin-2-ylmethyl)imidazolidin-1-yl)-2,3-dihydro-1H-inden-5-yl)amino)-2-oxoethyl)-1-methyl-1H-pyrazole-5-carboxamide] | 5.62 | 5.83
16 | CNC(=O)C1(N2CC(C(C)(C)C)NC2=O)Cc2ccc(NC(=O)[C@@H](NC(=O)c3ccnn3C)C3CCCCC3)cc2C1 (stereo partly drawn) [Example 44, N-((1S)-2-((2-(4-(tert-butyl)-2-oxoimidazolidin-1-yl)-2-(methylcarbamoyl)-2,3-dihydro-1H-inden-5-yl)amino)-1-cyclohexyl-2-oxoethyl)-1-methyl-1H-pyrazole-5-carboxamide] | 6.64 | 7.33
17 | CNC(=O)C1(N2C[C@@H](C(C)C)NC2=O)Cc2ccc(NC(=O)[C@@H](NC(=O)c3ccnn3C)C3CCCC3)cc2C1 (stereo partly drawn) [Example 46, N-((1S)-1-cyclopentyl-2-((2-((R)-4-isopropyl-2-oxoimidazolidin-1-yl)-2-(methylcarbamoyl)-2,3-dihydro-1H-inden-5-yl)amino)-2-oxoethyl)-1-methyl-1H-pyrazole-5-carboxamide] | 6.27 | 6.59
18 | CNC(=O)C1(N2C[C@@H](C(C)C)NC2=O)Cc2ccc(NC(=O)[C@@H](NC(=O)c3ccnn3C)C3CCCCCC3)cc2C1 (stereo partly drawn) [Example 47, N-((1S)-1-cycloheptyl-2-((2-((R)-4-isopropyl-2-oxoimidazolidin-1-yl)-2-(methylcarbamoyl)-2,3-dihydro-1H-inden-5-yl)amino)-2-oxoethyl)-1-methyl-1H-pyrazole-5-carboxamide] | 7.94 | 7.96
19 | CNC(=O)C1(N2CC(C(C)c3ccccc3)NC2=O)Cc2ccc(NC(=O)[C@@H](NC(=O)c3ccnn3C)C3CCCCC3)cc2C1 (stereo partly drawn) [Example 48, N-((1S)-1-cyclohexyl-2-((2-(methylcarbamoyl)-2-(2-oxo-4-(1-phenylethyl)imidazolidin-1-yl)-2,3-dihydro-1H-inden-5-yl)amino)-2-oxoethyl)-1-methyl-1H-pyrazole-5-carboxamide] | 5.90 | 6.79
